“And” between values parts separate entries of the source, which are not always exact repeats. Equal values may be shown once. Blank lines part the entries; values can stand above or below the compound they belong to.
Key:
microsomal CYP enzymes = assay: HLM incubation of MPZ with CYP inhibitors; details: HLM 0.5 mg/ml, 60 min; for effect of inhibitor on MPZS formation from MPZ / effect of inhibitor on MPZH formation from MPZ (peak area ratio, qualitative): 1 mM ABT; for effect of inhibitor on MPZS formation from MPZ: itraconazole 2.5 µM; for effect of inhibitor on MPZH formation from MPZ (peak area ratio, qualitative): quinidine 1 µM
Method: Initially, two sets of incubations were conducted with HLM (0.5 mg/ml microsomal protein), 1 and 10 μM MPZ, 100 mM KPi buffer (pH 7.4) where one set was in the presence and the other set was in the absence of 1 mM ABT, a non‐specific CYP inhibitor for 60 min. This allowed the assessment of total CYP contribution for MPZ metabolism. Then, CYP‐specific chemical inhibitors were used to assess the contribution of individual major CYP‐isoforms where HLM were incubated with 1 or 10 μM MPZ in the presence and in the absence of each CYP specific inhibitor at 37°C for 60 min. […] Parallel incubation with seven CYP specific probe substrates (phenacetin for CYP1A2, bupropion for CYP2B6, paclitaxel for CYP2C8, diclofenac for CYP2C9, S‐mephenytoin for CYP2C19, dextromethorphan for CYP2D6 and midazolam for CYP3A4/5) were included in as positive controls. For negative control reaction, MPZ was incubated at 37°C in duplicate in a reaction mixture devoid of NADPH. All other procedures were the same as described previously.
LC separation conditions were developed for MPZ and its metabolites (MPZA and MPZS), 7‐hydroxycoumarin, each metabolite of CYP probe substrate, benzydamine N‐oxide, and phthalazine. The LC–MS/MS system consisted of a Shimadzu Nexera X2 LC‐30 UPLC system (Shimadzu Corporation), and an API 4000 triple quadrupole mass spectrometer (SCIEX) was used for analysis. All analytes were analyzed using electrospray ionization (ESI) in positive ion mode except for 7‐EC, which used negative ion mode. The LC–MS/MS system was controlled by Analyst software (version 1.6.1, SCIEX).
For each analytical method, a calibration curve was generated for the quantification of MPZ and its two metabolites (MPZA and MPZS). […] PAR was also used for all positive control compounds.

[1] = system: human liver microsomal amidase; assay: Incubations with heat-treated HLM for microsomal hydrolase/amidase activity, with and without BNPP; assay type: in vitro ADME; details: 10 µM MPZ, HLM, 60 min
Method: Prior to the reaction for amidase activity, the reaction mixture containing KPi buffer (pH 7.4, 8.4, or 9.4) and HLM was pre‐incubated at 50°C for 5 min to inactivate CYP and FMO activities in HLM. The mixture was placed on ice to cool down. An aliquot was taken out which was considered as t = 0 min incubation. Then 10 µM MPZ was added into the remaining mixture and incubated at 37°C on an orbital shaker for 60 min. A parallel set of incubations was conducted with 10 µM MPZ in the presence at 2 and 16 µM, of BNPP (a known inhibitor of amidase). All reactions were in triplicate. The total percentage of organic solvent in the incubation mixture was ≤0.1%. The reactions were terminated by the addition of chilled acetonitrile: methanol, 90:10, (v/v). The samples were vortex‐mixed and stored at ≤−70°C and were subjected analyzed by LC–MS/MS.

[2] = Clinical study NG100-101: plasma pharmacokinetics of metopimazine and metabolites after a single oral 60 mg dose; assay type: in vivo, healthy adult subjects (human); details: for % Drug‐related material MPZS: based on AUClast
Method: The clinical study was conducted at Biotrial Rennes, in accordance with the Declaration of Helsinki. The study (NG100‐101) was a double‐blind, placebo‐ controlled, ascending single‐ and multiple‐dose study of the safety, tolerability, and pharmacokinetics of metopimazine administered orally to healthy adult subjects. The study protocol, informed consent form, and appropriate related documents were approved by the institutional review board, and all subjects provided written informed consent prior to participation in the study. […] In the morning, after at least 10 h of fasting overnight, eight healthy adult subjects (male or female aged 18 to 45), were orally administered metopimazine (or a matching placebo). […] Blood samples were collected at the following time points: predose and 0.25, 0.5, 0.75, 1, 1.25, 1.5, 2, 3, 4, 6, 8, 12, 18, and 24 h postdose; plasma samples were obtained by centrifugation of the blood samples. A comprehensive safety and pharmacokinetic analysis was performed for each cohort for the SAD and MAD parts of the study and will be presented elsewhere. A fit‐for‐purpose discovery method was used to analyze 4 subjects from the highest single dosed cohort for the presence of metabolites. Plasma concentrations of metopimazine, metopimazine acid and metopimazine sulfoxide were quantified using LC–MS/MS methods. Venous blood samples (6 ml) for the determination of plasma concentrations of MPZ and metabolites (MPZA and MPZS) were drawn by direct venipuncture or via an intravenous catheter into K2EDTA Vacutainer® tubes. It was important to avoid hemolysis during blood collection. After collection, the blood samples were centrifuged within 60 min, at 3000 rotations per minute for 10 min at 5°C. The resulting plasma was separated into 2 equal aliquots of 1000 µl (aliquots A & B) and transferred to polypropylene tubes, which were labeled, frozen within 120 min of blood collection and stored at –70°C until required for bioanalysis. Immediately prior to bioanalysis, samples were thawed and a 200 µl aliquots were removed and analytes extracted using acetonitrile protein precipitation. The extracted samples were analyzed twice, once for quantification of MPZ and MPZA and again for MPZS quantification as described below. An MRM LC–MS/MS method was developed for MPZ and metopimazine acid (MPZA) in rat, dog, and human plasma. The method was run in reverse phase in positive ion mode. […] D6‐isotopically labeled internal standards were used for each analyte. The following m/z transitions were monitored: metopimazine 446.3 → 141.1 and metopimazine acid 447.2 → 142.1. […] An MRM LC–MS/MS method was developed to look for metopimazine sulfoxide (MPZS) in human plasma. The method was run in reverse phase in positive ion mode. The system was identical to what was described above except that a slightly longer column was used, a Supelco Discovery HS F5 100 × 4.0 mm (3 µm) column (Sigma‐Aldrich). A D6‐isotopically labeled internal standards was used for MPS and the m/z transition monitored was 462.3 → 98.1. A calibration curve was generated for the quantification of MPZS in human plasma. Noncompartmental Pharmacokinetics analysis was performed in Phoenix 64 Winnonlin version 8.1.

[3] = Incubation of MPZ with pooled human liver microsomes (disappearance, metabolite formation); assay type: in vitro ADME; details: metopimazine incubation in human liver microsomes, full scan LC–MS
Method: To conduct the metabolic incubation in liver microsomes in the linear range, protein concentration and the reaction time were optimized.
PAR was also used for all positive control compounds.
The degree of disappearance of each analyte was evaluated by comparing the PAR of analyte to IS or concentration in different sampling time points to the PAR of time zero, (t = 0, 100%). The percent of parent remaining values were calculated according to the following equation: %parentremaining=(meanconcentrationorPARateachsamplingtimepoint/meanconcentrationorPARoftimezero)×100

CYP3A4 = biological target: T1, CYP3A4 (Homo sapiens, UniProt P08684); assay: Incubation of MPZ with recombinant CYP isoforms: CYP3A4; assay type: in vitro ADME; details: 1 µM MPZ, 60 min
T1 construct: purchased Corning Inc
Excerpt: (§1) All other procedures were the same as described previously.

CYP3A5 = biological target: T2, CYP3A5 (Homo sapiens, UniProt P20815); assay: Incubation of MPZ with recombinant CYP isoforms: CYP3A5; assay type: in vitro ADME; details: 1 µM MPZ, 60 min
T2 construct: purchased Corning Inc
Excerpt: as §1

microsomal FMOs = assay: Incubation of MPZ with HLM for FMO, with and without methimazole; assay type: in vitro ADME, human; details: 1 mM methimazole, pH 8.4, NADPH, 60 min
Method: MPZ, at 1.0 and 10.0 µM, was incubated with HLM or HKM to determine the contribution of microsomal FMOs on the metabolism of MPZ.
A reaction mixture containing KPi buffer (pH 8.4), HLM or HKM (0.5 mg/ml protein) and MPZ (1.0 and 10.0 µM) was pre‐incubated for 3–5 min at 37°C. The reaction was initiated by the addition of NADPH into the reaction mixture. The reaction was conducted for 0 and 60 min. A positive control (benzydamine, 100 µM) was incubated in duplicate for 0 and 20 min. Parallel incubation was conducted by adding 1 mM methimazole, a non‐specific FMO inhibitor, under identical conditions. Heat‐inactivated microsomes (50°C for at least 5 min) was incubated under identical conditions negative control. All other procedures were the same as described previously.

[4] = 4 subjects, single oral 60 mg MPZ dose
[5] = plasma, individual subjects, single oral 60 mg MPZ dose

T1 sequence (P08684 whole entry, canonical isoform): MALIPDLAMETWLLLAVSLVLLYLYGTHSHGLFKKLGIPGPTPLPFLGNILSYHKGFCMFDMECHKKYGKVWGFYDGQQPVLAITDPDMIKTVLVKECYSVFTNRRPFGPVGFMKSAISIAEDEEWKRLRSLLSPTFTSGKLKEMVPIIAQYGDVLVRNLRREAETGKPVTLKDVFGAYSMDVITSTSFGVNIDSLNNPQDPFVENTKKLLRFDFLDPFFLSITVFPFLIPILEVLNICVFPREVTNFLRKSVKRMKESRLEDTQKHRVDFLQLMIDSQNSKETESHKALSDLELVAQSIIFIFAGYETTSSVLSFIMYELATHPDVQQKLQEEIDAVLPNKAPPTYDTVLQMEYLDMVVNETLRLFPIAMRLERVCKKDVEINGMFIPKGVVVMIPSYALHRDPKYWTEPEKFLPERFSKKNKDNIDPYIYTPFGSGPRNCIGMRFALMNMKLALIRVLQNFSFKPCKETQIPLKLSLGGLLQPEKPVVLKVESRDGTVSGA
T2 sequence (P20815 whole entry, canonical isoform): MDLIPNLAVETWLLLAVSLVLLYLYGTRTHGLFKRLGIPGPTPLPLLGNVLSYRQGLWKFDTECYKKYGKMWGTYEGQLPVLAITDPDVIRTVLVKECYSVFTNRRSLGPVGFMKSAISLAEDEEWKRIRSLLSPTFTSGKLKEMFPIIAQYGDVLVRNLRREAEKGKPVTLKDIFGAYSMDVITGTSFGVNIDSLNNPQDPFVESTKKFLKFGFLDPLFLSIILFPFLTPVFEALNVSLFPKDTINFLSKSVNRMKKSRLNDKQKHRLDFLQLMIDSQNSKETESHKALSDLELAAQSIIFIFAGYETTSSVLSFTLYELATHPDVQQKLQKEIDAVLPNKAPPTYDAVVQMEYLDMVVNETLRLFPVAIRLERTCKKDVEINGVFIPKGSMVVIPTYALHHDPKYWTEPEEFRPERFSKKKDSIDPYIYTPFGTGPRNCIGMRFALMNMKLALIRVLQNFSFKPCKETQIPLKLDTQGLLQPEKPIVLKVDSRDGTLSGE

effect of inhibitor on MPZA formation from MPZ (microsomal CYP enzymes; 1 mM ABT or CYP-isoform specific inhibitors): no effect on MPZA
effect of inhibitor on MPZS formation from MPZ (microsomal CYP enzymes): inhibited the formation of MPZS
effect of inhibitor on MPZH formation from MPZ (peak area ratio, qualitative) (microsomal CYP enzymes): inhibited
SMILES: Nn1nnc2ccccc21 [1‐ABT, 1‐aminobenzotriazole]

SMILES: O=[N+]([O-])c1ccc(OP(=O)(O)Oc2ccc([N+](=O)[O-])cc2)cc1 [BNPP, bis‐p‐nitrophenyl phosphate]
inhibition of MPZA formation ([1]; 2 μM BNPP, even at the highest pH): at least 97%
inhibition of MPZA formation ([1]; 16 μM BNPP, all three pH values (7.4, 8.4, 9.4)): > 99%

SMILES: CS(=O)(=O)c1ccc2c(c1)N(CCCN1CCC(C(N)=O)CC1)c1ccccc1[S+]2[O-] (stereo not shown) [MPZS, metopimazine sulfoxide]
quantifiability in plasma at late time points [2, 4]: not quantifiable by 12 h
time of first appearance in plasma [2, 4]: 30 to 45 min
% Drug‐related material MPZS ([2]; individual subjects, single 60 mg dose): 0.4% and 0.9% and 0.5% and 0.8%
% Drug‐related material MPZS ([2]; mean of 4 subjects, single 60 mg dose): 0.7%
AUC(0-t) ([2]; both sexes, human, plasma, po, 60 mg, plasma, mean of 4 subjects, single oral 60 mg MPZ dose, read-out: MPZS AUClast): 15.8 ng·h/mL
Cmax ([2]; both sexes, human, plasma, po, 60 mg, plasma, mean of 4 subjects, single oral 60 mg MPZ dose, read-out: MPZS C max): 4.9 ng/mL
MPZS AUClast [2, 5]: 7.6 ng‐h/ml and 25.5 ng‐h/ml and 10.0 ng‐h/ml and 20.1 ng‐h/ml
MPZS C max [2, 5]: 1.6 ng/mL and 10.2 ng/mL and 3.1 ng/mL and 4.6 ng/mL
MPZS T max [2, 5]: 4 h and 1.25 h and 1 h
percent of total circulating drug‐related material ([2]; rough estimate based on AUClast, single 60 mg dose): less than 1%
Peak area at time 0 [3]: 0
Peak area at time 90 min [3]: 59
metabolite formation by recombinant CYP3A4 (CYP3A4): mainly produced by CYP3A4
metabolite formation by recombinant CYP3A5 (CYP3A5): not CYP3A5

effect of inhibitor on MPZS formation from MPZ (microsomal CYP enzymes): clearly inhibited
SMILES: CCC(C)n1ncn(-c2ccc(N3CCN(c4ccc(OCC5COC(Cn6cncn6)(c6ccc(Cl)cc6Cl)O5)cc4)CC3)cc2)c1=O (stereo not shown) [itraconazole]

effect of FMO inhibitor on MPZA formation in HLM (microsomal FMOs): not inhibited
SMILES: Cn1cc[nH]c1=S [methimazole]

SMILES: C=C[C@H]1C[N@@]2CC[C@H]1C[C@@H]2[C@@H](O)c1ccnc2ccc(OC)cc12 [quinidine]
effect of inhibitor on MPZH formation from MPZ (peak area ratio, qualitative) (microsomal CYP enzymes): inhibited

Source: PMC8929364, “Metopimazine is primarily metabolized by a liver amidase in humans” (Pharmacology Research & Perspectives, 2021)
